For data set [1], the system named is convulsivant effects of strychnine. The data set is described as follows: Anti-Strychnine Activity (oral, mice). In kind it is in vivo. The note with it: for ED50: Mus musculus, po, read-out: Inhibition of the convulsivant effects of Strychinine ED50. The method, then: (§1) The anticonvulsivant activity of the derivatives was assessed with respect to two chemical agents: strychnine and bicuculline, and with respect to electric shock. In these various tests, the products were compared with the minaprine described in French Patent 2 141 697 mentioned hereinabove.
The products are administered by the oral route 30 minutes before the strychnine 0.9 mg/kg i.p.. The occurrence of tetanic crises as well as mortality are noted during the 60 minutes following administration of strychnine.
(§2) In the three cases, the products are administered in a range of doses to batches of 10 mice per dose.

Data set [2] has as its system convulsivant effects of bicuculline. Kind of data set: Anti-Bicuculline Activity (oral, mice). In kind it is in vivo. Particulars: for ED50: Mus musculus, read-out: Inhibition of the convulsivant effects of Bicuculline ED50. The protocol: as §1
Anti-Bicuculline Activity
The products are administered by the oral route 30 minutes before the bicuculline 0.9 mg/kg i.v.. The occurrence of clonic, tonic crises as well as mortality are noted during the 60 minutes following administration of bicuculline.
as §2

The subject of data set [3] is convulsivant effects of electric shock. The data set is described as follows: Anti-Electric Shock Activity (oral, mice). The note with it: for ED50: Mus musculus, po, read-out: Inhibition of the convulsivant effects of electric shock ED50; for anti-convulsivant activity with respect to electric shock (in words): oral. In kind it is in vivo. The protocol: The anticonvulsivant activity of the derivatives was assessed with respect to two chemical agents: strychnine and bicuculline, and with respect to electric shock.
Anti-Electric Shock Activity
The electric shock was given to the animal via corneal electrodes. […] The animals not presenting extension of the rear limbs were considered as protected.
as §2

The nature of data set [4]: Acute toxicity, mortality within 24 hours (oral, mice). It is filed as in vivo. Particulars: mouse, in vivo.
The next data set concerns mice. The data set is described as above. In kind it is in vivo. Particulars: for toxic effect at the dose of 500 mg/kg p.os (in words): mouse, in vivo.
The conditions of data set [5]: per os; cited from earlier work.
[6] abbreviates: 30 minutes before bicuculline 0.9 mg/kg i.v., 10 mice per dose.
[7] abbreviates: mice, per os, 30 minutes before electric shock (12.5 volts for 0.5 seconds), corneal electrodes, 10 mice per dose.
Setting [8] is: mice, oral, 250 mg/kg, 24 hours, read-out: p. cent of mortality at 250 mg/kg.
[9] abbreviates: mice, oral, 500 mg/kg, 24 hours, read-out: p. cent of mortality at 500 mg/kg.
Where [10] appears, read: mice, oral, 1000 mg/kg, 24 hours, read-out: p. cent of mortality at 1000 mg/kg.

Where a name gives a salt, the structure may show the parent alone. Read-outs that look alike come from different tables or passages of the source.

The source of these data is patent US4710499A, “New derivatives of pyridazine active on the central nervous system” (priority 1981, dated 1987).

As for `Cc1cc(-c2ccccc2)nnc1NCCO` [CM 30094, 3-(2-HYDROXY ETHYLAMINO)4-METHYL 6-PHENYL PYRIDAZINE], the ED50 – broadly, the dose that gives a 50% effect, or the effect in half of the subjects – turned out to be 119 mg/kg in data set [1], 286 mg/kg in data set [2] (setting [6]) and 107 mg/kg in data set [3] (setting [7]). Besides, the mortality at 24 h in data set [4] (setting [8]), in data set [4] (setting [9]) and in data set [4] (setting [10]) was 0% in each case.
Regarding `Cc1cc(-c2ccccc2)nnc1NCC(C)O` (stereo not shown) [CM 30096], the figures for the ED50 in data set [1], in data set [2] (setting [6]) and in data set [3] (setting [7]) were 92 mg/kg, 175 mg/kg and 209 mg/kg, respectively. The “anti-convulsivant activity with respect to strychnine (in words)” value in data set [1] (mice, oral) is reported as “particularly powerful”. In data set [2], the “anti-convulsivant activity with respect to bicuculline (in words)” value was “still considerable”. Further, the “anti-convulsivant activity with respect to electric shock (in words)” value in data set [3] (mice) was “still considerable”. For the same molecule, the mortality at 24 h came to 0% in data set [4] (po, 250 mg/kg); 20% in data set [4] (po, 500 mg/kg); 100% in data set [4] (po, 1000 mg/kg). Moreover, the “toxic effect at the dose of 500 mg/kg p.os (in words)” value in the data set with mice is “have a toxic effect”.
In the case of `Cc1cc(-c2ccccc2)nnc1NCCCCO` [CM 30097], the mortality at 24 h in data set [4] (setting [8]) came to 0%; in data set [4] (setting [9]), 0%; in data set [4] (setting [10]), 100%.
Take `COCCNc1nnc(-c2ccccc2)cc1C` [CM 30310, 3-(2-METHOXY ETHYLAMINO)4-METHYL 6-PHENYL PYRIDAZINE]: the ED50 was determined as 158 mg/kg in data set [1], 136 mg/kg in data set [2] (setting [6]) and 78 mg/kg in data set [3] (setting [7]). For the same molecule, in data set [1] (mice, oral), the “anti-convulsivant activity with respect to strychnine (in words)” value is on record as “particularly powerful”. Further, the values for the mortality at 24 h in data set [4] (setting [8]), in data set [4] (setting [9]) and in data set [4] (setting [10]) were 0%, 0% and 100%, respectively.
For the molecule `OCCNc1nnc(-c2ccccc2)cc1-c1ccccc1` [CM 30339], the results for the ED50 in data set [1], in data set [2] (setting [6]) and in data set [3] (setting [7]) were 145 mg/kg, 86 mg/kg and ~200 mg/kg, respectively. Also, in data set [1] (mice, oral), the “anti-convulsivant activity with respect to strychnine (in words)” value is on record as “particularly powerful”. The mortality at 24 h in data set [4] (po, 250 mg/kg) was determined as 0%; in data set [4] (po, 500 mg/kg) it was 60%; in data set [4] (po, 1000 mg/kg), 60%. Also, the “toxic effect at the dose of 500 mg/kg p.os (in words)” value in the data set on mice is “have a toxic effect”.
As to `COCCNc1nnc(-c2ccccc2)cc1-c1ccccc1` [CM 30340, 3-(2-methoxyethylamino)4,6-diphenyl pyridazine], the values for the mortality at 24 h in data set [4] (setting [8]), in data set [4] (setting [9]) and in data set [4] (setting [10]) were 0%, 0% and 20%, respectively.
`CCCCNc1nnc(-c2ccccc2)cc1C` [CM 30434, 3-BUTYLAMINO 4-METHYL 6-PHENYL PYRIDAZINE]: the mortality at 24 h in data set [4] (setting [8]), in data set [4] (setting [9]) and in data set [4] (setting [10]) was 0% in each case.
For `Cc1cc(-c2ccccc2)nnc1NCCN1CCOCC1` [Minaprine, reference compound], the “anti-convulsivant activity with respect to strychnine (in words)” value in data set [1] (mice, oral) is “totally inactive”. For the same molecule, the “Inhibition of the convulsivant effects of Strychinine ED50” value in data set [1] (mice, oral, 30 minutes before strychnine 0.9 mg/kg i.p., 10 mice per dose) is reported as “Inactive”. Moreover, the “anti-convulsivant activity with respect to bicuculline (in words)” value in data set [2] was “totally inactive”. Besides, the “Inhibition of the convulsivant effects of Bicuculline ED50” value in data set [2] (setting [6]) is reported as “Inactive”. Besides, the “anti-convulsivant activity with respect to electric shock (in words)” value in data set [3] (mice) was “totally inactive”. The “Inhibition of the convulsivant effects of electric shock ED50” value in data set [3] (setting [7]) is reported as “Inactive”. The mortality in data set [4] (po, 100 mg/kg) is 20%. Further, the mortality at 24 h was 100% in data set [4] (po, 250 mg/kg); 100% in data set [4] (po, 500 mg/kg); 100% in data set [4] (po, 1000 mg/kg). In addition, the “toxicity, overall (in words)” value with mice (mice, p.os) is “much greater toxic effect”. In addition, the “dose at which the product shows itself to be convulsivant” value in data set [5] was “greater than 100 mg/kg”.
Regarding `CCCC(CCC)C(=O)O` [Sodium Valproate, sodium salt of valproic acid, reference compound], the ED50 worked out at 480 mg/kg in data set [1], 234 mg/kg in data set [2] (setting [6]) and 290 mg/kg in data set [3]. Besides, the “anti-convulsivant activity with respect to strychnine (in words)” value in data set [1] (mice, oral) is “effective dose 50 most often greater than that of the products of the invention”. Besides, the “anti-convulsivant activity with respect to bicuculline (in words)” value in data set [2] is “effective dose 50 most often greater than that of the products of the invention”. Also, in data set [3] (mice), the “anti-convulsivant activity with respect to electric shock (in words)” value is on record as “effective dose 50 most often greater than that of the products of the invention”.
